Measured values as given in US20050148069A1, “IGF-1 instructs multipotent adult CNS neural stem cells to an oligodendroglial lineage” (priority 2003, published 2005).

Tested on: adult hippocampus-derived neural progenitor cells
Experiment: in vitro differentiation analysis of neural progenitor cells (immunocytochemistry for lineage markers)
Assay type: cell-based, rat
Conditions: for differentiation of neural progenitor cells into oligodendrocytes: 500 ng/ml; for differentiation of neural progenitor cells into oligodendrocytes / GFAP+ astrocytes: 4 days; for rank order of potency for oligodendrocyte differentiation: different concentrations (20-1000 ng/ml); for GFAP+ astrocytes: each at 500 ng/ml
Description: The neural progenitor cells isolated from the hippocampus of female Fischer 344 used in this study have been characterized previously (Gage et al., 1995; Palmer et al., 1997). The whole brain-derived neural stem cells from PIO ICR mice were isolated and cultured according to the methods as described, with slight modifications. Cells were cultured as previously described (Gage et al., 1995; Ray et al., 1993). Cells between passages 10 and 20 were used for in vitro differentiation analyses. To induce differentiation, cells were plated into 4-well chamber slides at a density of 55,000-75,000 cells per well and were allowed to proliferate in N2-supplemented (Invitrogen) DMEM:F12 (Omega Scientific) medium containing 20 ng/ml FGF-2 (PeproTech, Inc.) for 24 hours. FGF-2 was then withdrawn and cells were subsequently treated with differentiation media. […] For IGF-induction experiments, cells were trypsinized, washed with 1× PBS, and plated into insulin-free N2 medium. […] In some cultures, BrdU (2.5 μM, Sigma) was added to label dividing cells, and Q-VD-OPh (2 μM, Enzyme Systems Products) was added to prevent apoptosis.
Cells were fixed with 4% paraformaldehyde, followed by immunocytochemical staining as described (Palmer et al., 1999). Labeled cells were visualized using a Nikon E800 upright microscope or a Nikon E600 inverted microscope (Nikon Inc.) and a Spot RT CCD camera (Diagnostic Instruments Inc.). 4′,6-diamidino-2-phenylindole (DAPI) was used to identify individual cells. Quantification of cell phenotypes was with StereoInvestigator (MicroBrightfield Inc.); for each marker, 500-1000 cells were sampled systematically from standardized fields at 40×magnification. For quantification of live/dead cells, images were taken of cultures live-stained with propidum iodide (1 μg/ml; Molecular Probes) and Hoescht 33342 (1 μg/ml; Sigma) at 10×magnification, and cells were counted using Image-Pro (Media Cybernetics). The following primary antibodies were used: rabbit anti-Tuj1 (1:7500;Covance), mouse anti-RIP (1:25-1:75; Hybridoma Bank); guinea pig anti-GFAP (1:500-1:2500; Advanced Immunochemical, Inc.); rabbit anti-MBP (1:500; Chemicon International Inc.), rat anti-BrdU (1:400; Accurate). Secondary antibodies were all from Jackson ImmunoResearch and used at 1:250 dilution. The detection of BrdU in cultured cells required treatment in 2 N HCL at 37° C. for 30 min (Palmer et al., 1999). All experiments were independently replicated at least 3 times.

Compound	differentiation of neural progenitor cells into oligodendrocytes	rank order of potency for oligodendrocyte differentiation	GFAP+ astrocytes	effects on proliferation or differentiation (2 μM Q-VD-OPh, 2-day cultures)	cell survival (DAPI-stained nuclei, persistence of cells) (2 μM Q-VD-OPh, 2-day cultures, insulin-free N2 medium)	RIP+ differentiation (2 μM Q-VD-OPh, no IGF-I, 2-day cultures, insulin-free N2 medium)
insulin: insulin (Sigma)	could also promote the preferential differentiation of neural progenitor cells into oligodendrocytes	IGF-I>IGF-II>insulin	few to no GFAP+ astrocytes	–	–	–
CC(C)[C@H](NC(=O)c1ccc2ccccc2n1)C(=O)N[C@@H](CC(=O)O)C(=O)COc1c(F)cccc1F [Q-VD-OPh, reference compound]	–	–	–	without obvious effects on proliferation or differentiation	promoted the majority of the cells to survive	approximately 2%
IGF-II: human recombinant IGF-II (R&D Systems)	could also promote the preferential differentiation of neural progenitor cells into oligodendrocytes	IGF-I>IGF-II>insulin	few to no GFAP+ astrocytes	–	–	–
